Experimental data as given in PMC5355235, “FLT3 activating mutations display differential sensitivity to multiple tyrosine kinase inhibitors” (Oncotarget, 2017).
Where two headings read alike, the source gives them in different places.

Key:
Format in all cases: cell-based
[1] = system: BaF3 FLT3 D593D mutant cells; assay: MTT growth inhibition assay, BaF3 FLT3 D593D cells; conditions: Mus musculus, no IL-3, 48 h, read-out: Proliferation IC50
Experimental: (§1) Figure 1 Growth of AL mutants in the presence of FLT3 TKI The BaF3 AL mutants were grown in the absence of IL-3 and analyzed by treatment in increasing concentrations of FLT3 TKI for 48 hours, after which growth inhibition was assessed using the MTT assay. Means are representative of at least three independent experiments.
(§2) The cells were grown in the absence of IL3 and analyzed by treatment in increasing concentrations of FLT3 TKI for 48 hours, after which growth inhibition was assessed using the MTT assay. Each experiment was performed at least three times and representative results are shown.
(§3) Based on Trypan Blue exclusion, 2 × 10^4 viable cells were seeded in quadruplicate in a 96-well microtiter plate in the presence or absence of inhibitor for 48 h. The effect of drug activity on cell viability was measured using the 3-(4,5-Dimethylthiazol-2-yl)-2,5-diphenyltetrazolium bromide (MTT) assay according to the manufacturer's instructions (Roche Applied Science, Indianapolis, IN, USA). Following treatment, cells were incubated for 4 h in MTT followed by dissolution in solubilization buffer overnight. Absorbance was measured at 570 nm on a Bio-Rad plate reader (Hercules, CA, USA). […] Results shown are presented as means and are representative of at least three independent experiments.

[2] = system: BaF3 FLT3 D835N mutant cells; assay: MTT growth inhibition assay, BaF3 FLT3 D835N cells; conditions: Mus musculus, no IL-3, 48 h, read-out: Proliferation IC50
Experimental: as §1, §2, §3

[3] = system: BaF3 FLT3 I836L+D mutant cells; assay: MTT growth inhibition assay, BaF3 FLT3 I836L+D cells; conditions: Mus musculus, no IL-3, 48 h, read-out: Proliferation IC50
Experimental: as §1, §2, §3

[4] = system: BaF3 FLT3 840G+S mutant cells; assay: MTT growth inhibition assay, BaF3 FLT3 840G+S cells; conditions: Mus musculus, no IL-3, 48 h, read-out: Proliferation IC50
Experimental: as §1, §2, §3

[5] = system: BaF3 FLT3 D835Y mutant cells; assay: MTT growth inhibition assay, BaF3 FLT3 D835Y cells; conditions: Mus musculus, no IL-3, 48 h, read-out: Proliferation IC50
Experimental: as §1, §2, §3

[6] = system: BaF3 FLT3 I836T mutant cells; assay: MTT growth inhibition assay, BaF3 FLT3 I836T cells; conditions: Mus musculus, no IL-3, 48 h, read-out: Proliferation IC50
Experimental: as §1, §2, §3

[7] = system: BaF3 FLT3 I836S mutant cells; assay: MTT growth inhibition assay, BaF3 FLT3 I836S cells; conditions: Mus musculus, read-out: Proliferation IC50
Experimental: as §1, §2, §3

BaF3/ITD cells = assay: MTT growth inhibition assay, BaF3 FLT3-ITD cells; conditions: Mus musculus, no IL-3, 48 h, read-out: Proliferation IC50
Experimental: as §1, §2, §3

[8] = system: BaF3 FLT3 D835A mutant cells; assay: MTT growth inhibition assay, BaF3 FLT3 D835A cells; conditions: Mus musculus, read-out: Proliferation IC50
Experimental: as §1, §2, §3

[9] = system: BaF3 FLT3 D835G mutant cells; assay: MTT growth inhibition assay, BaF3 FLT3 D835G cells; conditions: Mus musculus, no IL-3, 48 h, read-out: Proliferation IC50
Experimental: as §1, §2, §3

[10] = system: BaF3 FLT3 D835L+K mutant cells; assay: MTT growth inhibition assay, BaF3 FLT3 D835L+K cells; conditions: Mus musculus, no IL-3, 48 h, read-out: Proliferation IC50
Experimental: as §1, §2, §3

FLT3 D835L+K = assay: FLT3 autophosphorylation, immunoprecipitation/Western blot, D835L+K; conditions: D835L+K mutant, concentrations of 200 nM, 1 h
Experimental: Activated FLT3 expression was measured by performing immunoprecipitation, SDS-PAGE and Western blotting as previously described. Specifically, 10^7 cells were washed in medium and treated with inhibitor for 1 h followed by stimulation with 25 ng/ml of FLT3 ligand for 15 minutes where indicated. Cells were washed twice with ice-cold PBS and lysed in 300 µl of NP-40 lysis buffer (150 mM NaCl, 20 mM TrisHCl (pH7.4), 10% glycerol, 1% NP-40, 10 mM EDTA, 100 mM NaF) with 2 mM Na3VO4 and protease inhibitors (Complete Tablets, Roche, Mannheim, Germany) at 4°C for 30 m. Cell lysate was harvested by centrifugation at 13,000 × g for 30 m at 4°C. FLT3 S-18 antibody was incubated with 500 µg lysate overnight at 4°C followed by immunoprecipitation with protein A-agarose beads for 2 h. Beads were washed once in Tris buffered saline with 1% Tween-20 (TBST) and twice in TBS. Samples were boiled in sodium dodecyl sulfate (SDS) sample buffer prior to separating in a 8% SDS-polyacrylamide gel (SDS-PAGE). Proteins were transferred to a polyvinyl diflouride (PVDF) membrane (Millipore, Bedford, MA, USA) and detected by 4G10 phosphotyrosine antibody and anti-FLT3 S-18 antibody. FLT3 was visualized using the Odyssey Infra Red Imaging System from Li-Cor (Lincoln, NE, USA) using AlexaFluor 680 goat anti-mouse and AlexaFluor 800 goat anti-rabbit antibodies. […]

[11] = BaF3 FLT3 I836S, no IL-3, 48 h, MTT
[12] = BaF3 FLT3 D835A, no IL-3, 48 h, MTT

Row | IC50 [1] [nM] | IC50 [2] [nM] | IC50 [3] [nM] | IC50 [4] [nM] | IC50 [5] [nM] | IC50 [6] [nM] | IC50 [7, 11] [nM] | IC50 (BaF3/ITD cells) [nM] | IC50 [8, 12] [nM] | IC50 [9] [nM] | IC50 [10] [nM] | Compound | Inhibition of FLT3 phosphorylation (FLT3 D835L+K) | IC50 ([7]; BaF3, 48 h) [nM] | IC50 ([8]; BaF3, 48 h) [nM]
1 | > 3000 | 411 | > 3000 | 500 | > 3000 | > 3000 | > 3000 | 298 | 1970 | 423 | > 3000 | Cc1cc2ncc(-c3ccccc3)nc2cc1C [AG1295] | – | – | –
2 | 70 | 80 | 50 | 83 | 58 | > 1000 | > 1000 | 57 | 78.1 | 110 | > 1000 | CC1(COc2ccc3c(c2)ncn3-c2ccc3cccc(N4CCC(N)CC4)c3n2)COC1 [Crenolanib] | significant autophosphorylation still observable | – | –

Row | Compound | IC50 [1] [nM] | IC50 [2] [nM] | IC50 [3] [nM] | IC50 [4] [nM] | IC50 [5] [nM] | IC50 [6] [nM] | IC50 [7, 11] [nM] | IC50 (BaF3/ITD cells) [nM] | IC50 [8, 12] [nM] | IC50 [9] [nM] | IC50 [10] [nM] | Inhibition of FLT3 phosphorylation (FLT3 D835L+K) | IC50 ([7]; BaF3, 48 h) [nM] | IC50 ([8]; BaF3, 48 h) [nM]
3 | Cc1ccc(C(=O)Nc2ccc(CN3CCN(C)CC3)c(C(F)(F)F)c2)cc1C#Cc1cnc2cccnn12 [Ponatinib] | 10.7 | < 1 | < 1 | < 1 | 92 | > 1000 | – | < 1 | – | < 1 | > 1000 | significant autophosphorylation still observable | > 1000 | 148
